Source: PMC6008492, “Structure activity relationship studies on rhodanines and derived enethiol inhibitors of metallo-β-lactamases” (Bioorganic & Medicinal Chemistry, 2018)
Like-named read-outs stand apart in the source and are kept apart here.

Legend:
[1] = target: T1, NDM-1 (Klebsiella pneumoniae, UniProt C7C422); assay: NDM-1 inhibition, fluorogenic cephalosporin (FC5) hydrolysis; type: biochemical; settings: for remaining activity at 100 µM: read-out: % Residual activity versus NDM-1
T1 construct: made in house
Description: (§1) Inhibition analyses against bacterial MBLs and SBLs were performed as described previously.[22], [24], [26] Residual enzyme activities were determined for a range of inhibitor concentrations. Non-linear regression fitting of IC50 curves was carried out using a three-parameter dose–response curve in GraphPad Prism. Errors in IC50 values are expressed as: σ(logIC50)/logIC50×IC50
(§2) We first screened the inhibitors against a representative set of presently clinically important and other MBLs[22], comprising both Class B1 enzymes (NDM-1, New Delhi MBL-1; VIM-2, Verona integron–encoded MBL-2; BcII, Bacillus cereus II MBL; SPM-1, São Paulo MBL-1; IMP-1, imipenemase MBL-1) and the Class B2 MBL CphA (carbapenem hydrolysing MBL from Aeromonas hydrophila).[22] The latter MBL (CphA) only utilises one active site Zn(II) ion in catalysis, whilst the others normally use two Zn(II) ions.
Figure S4: IC50 curves for NDM-1 inhibition time courses. Residual activities were calculated from the
(§3) initial rate of FC5 hydrolysis after incubation of the enzyme with the inhibitor for 10 minutes. […]

[2] = system: MBLs (SPM-1, IMP-1, BcII, VIM-2, NDM-1); type: biochemical; settings: for MBL inhibition, result in words: at 100 µM
Description: as §1
as §2, with “ions. We also screened the inhibitors against a representative panel of SBLs from different classes (TEM-1, Temoneira β-lactamase-1, class A; CTX-M-15, cefotaxime hydrolysing β-lactamase from Munich 15, class A, extended spectrum β-lactamase (ESBL); AmpC E. coli, class C, and OXA-10, oxacillinase-10, class D).” for “ions.”

[3] = target: T2, BcII (Bacillus cereus, UniProt P04190); assay: biochemical; settings: for remaining activity at 100 µM: read-out: % Residual activity versus BcII
T2 construct: made in house
Description: as §1, §2
Figure S2: IC50 curves for BcII inhibition time courses. Residual activities were calculated from the initial
rate of FC5 hydrolysis after incubation of the enzyme with the inhibitor for 10 minutes. […]

[4] = target: SPM-1 (Pseudomonas aeruginosa, UniProt Q8G9Q0); assay: SPM-1 inhibition, fluorogenic cephalosporin (FC5) hydrolysis; type: biochemical; settings: for remaining activity at 100 µM: read-out: % Residual activity versus SPM-1
Description: as §1, §2
Figure S5: IC50 curves for SPM-1 inhibition time courses. Residual activities were calculated from the
as §3

[5] = target: T3, VIM-2 (Escherichia coli, UniProt Q5U7L7); assay: biochemical; settings: for remaining activity at 100 µM: read-out: % Residual activity versus VIM-2
T3 construct: made in house
Description: as §1
as §2, with “ions. We also screened the inhibitors against a representative panel of SBLs from different classes (TEM-1, Temoneira β-lactamase-1, class A; CTX-M-15, cefotaxime hydrolysing β-lactamase from Munich 15, class A, extended spectrum β-lactamase (ESBL); AmpC E. coli, class C, and OXA-10, oxacillinase-10, class D).” for “ions.”
Figure S6: IC50 curves for VIM-2 inhibition time courses. Residual activities were calculated from the
as §3

[6] = target: T4, IMP-1 (Serratia marcescens, UniProt P52699); assay: IMP-1 inhibition, fluorogenic cephalosporin (FC5) hydrolysis; type: biochemical; settings: for remaining activity at 100 µM: read-out: % Residual activity versus IMP-1
T4 construct: made in house
Description: as §1, §2
Figure S3: IC50 curves for IMP-1 inhibition time courses. Residual activities were calculated from the
initial rate of FC5 hydrolysis after incubation of the enzyme with the inhibitor for 10 minutes.

[7] = target: T5, OXA-10 (Pseudomonas aeruginosa, UniProt P14489); assay: SBL inhibition, OXA-10; type: biochemical; settings: read-out: residual activity OXA-10
T5 construct: made in house
Description: as §1
as §2, with “ions. We also screened the inhibitors against a representative panel of SBLs from different classes (TEM-1, Temoneira β-lactamase-1, class A; CTX-M-15, cefotaxime hydrolysing β-lactamase from Munich 15, class A, extended spectrum β-lactamase (ESBL); AmpC E. coli, class C, and OXA-10, oxacillinase-10, class D).” for “ions.”
(§4) Figure S1. Residual activities of serine-β-lactamases (SBLs) upon inhibition by rhodanines and enethiols at
(§5) Inhibition of intact rhodanine on a panel of SBLs
(§6) Inhibition of intact rhodanine amide on a panel […]

[8] = target: T6, CTX-M-15 (Escherichia coli, UniProt Q9EXV5); assay: SBL inhibition, CTX-M-15; type: biochemical; settings: read-out: residual activity CTX-M-15
T6 construct: made in house
Description: as §1
as §2, with “ions. We also screened the inhibitors against a representative panel of SBLs from different classes (TEM-1, Temoneira β-lactamase-1, class A; CTX-M-15, cefotaxime hydrolysing β-lactamase from Munich 15, class A, extended spectrum β-lactamase (ESBL); AmpC E. coli, class C, and OXA-10, oxacillinase-10, class D).” for “ions.”
as §4, §5, §6

[9] = target: T7, AmpC (Escherichia coli, UniProt P00811); assay: SBL inhibition, AmpC; type: biochemical, E. coli; settings: read-out: residual activity AmpC
T7 construct: made in house
Description: as §1
as §2, with “ions. We also screened the inhibitors against a representative panel of SBLs from different classes (TEM-1, Temoneira β-lactamase-1, class A; CTX-M-15, cefotaxime hydrolysing β-lactamase from Munich 15, class A, extended spectrum β-lactamase (ESBL); AmpC E. coli, class C, and OXA-10, oxacillinase-10, class D).” for “ions.”
as §4, §5, §6

[10] = target: T8, TEM-1 (Escherichia coli, UniProt P62593); assay: SBL inhibition, TEM-1; type: biochemical; settings: read-out: residual activity TEM-1
T8 construct: made in house
Description: as §1
as §2, with “ions. We also screened the inhibitors against a representative panel of SBLs from different classes (TEM-1, Temoneira β-lactamase-1, class A; CTX-M-15, cefotaxime hydrolysing β-lactamase from Munich 15, class A, extended spectrum β-lactamase (ESBL); AmpC E. coli, class C, and OXA-10, oxacillinase-10, class D).” for “ions.”
as §4, §5, §6

[11] = target: T9, CphA (Aeromonas hydrophila, UniProt P26918); assay: CphA (subclass B2 MBL) inhibition; type: biochemical
T9 construct: made in house
Description: as §1
as §2, with “ions. We also screened the inhibitors against a representative panel of SBLs from different classes (TEM-1, Temoneira β-lactamase-1, class A; CTX-M-15, cefotaxime hydrolysing β-lactamase from Munich 15, class A, extended spectrum β-lactamase (ESBL); AmpC E. coli, class C, and OXA-10, oxacillinase-10, class D).” for “ions.”

[12] = enethiols 6 assayed as sodium salts, 10 min incubation, read-out: IC50 NDM-1
[13] = enethiols 6 assayed as sodium salts, 10 min incubation, read-out: IC50 BcII (converted)
[14] = enethiols 6 assayed as sodium salts, 10 min incubation, read-out: IC50 SPM-1 (converted)
[15] = enethiols 6 assayed as sodium salts, 10 min incubation, read-out: IC50 VIM-2 (converted)
[16] = enethiols 6 assayed as sodium salts, 10 min incubation, read-out: IC50 IMP-1 (converted)
[17] = Table 2, read-out: IC50 versus CphA
[18] = Table 2, read-out: IC50 versus SPM-1
[19] = Table 2, read-out: IC50 versus BcII

T4 sequence (P52699 19-246, looked up, species assumed): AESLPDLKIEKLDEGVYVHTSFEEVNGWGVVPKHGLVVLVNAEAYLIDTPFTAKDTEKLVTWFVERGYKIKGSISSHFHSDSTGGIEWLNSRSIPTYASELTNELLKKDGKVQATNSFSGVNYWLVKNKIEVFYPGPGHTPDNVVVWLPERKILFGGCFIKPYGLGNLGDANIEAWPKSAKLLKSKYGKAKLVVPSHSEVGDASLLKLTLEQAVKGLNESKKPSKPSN
SPM-1, sequence (Q8G9Q0 entry or part of it): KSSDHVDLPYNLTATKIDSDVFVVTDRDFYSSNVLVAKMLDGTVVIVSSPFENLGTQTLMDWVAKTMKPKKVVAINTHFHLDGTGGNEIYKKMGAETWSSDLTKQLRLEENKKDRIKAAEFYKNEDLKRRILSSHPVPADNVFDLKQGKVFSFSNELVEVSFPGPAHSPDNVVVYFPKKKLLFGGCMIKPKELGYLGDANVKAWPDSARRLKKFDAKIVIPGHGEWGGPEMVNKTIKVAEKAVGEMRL
T9 sequence (P26918 28-254): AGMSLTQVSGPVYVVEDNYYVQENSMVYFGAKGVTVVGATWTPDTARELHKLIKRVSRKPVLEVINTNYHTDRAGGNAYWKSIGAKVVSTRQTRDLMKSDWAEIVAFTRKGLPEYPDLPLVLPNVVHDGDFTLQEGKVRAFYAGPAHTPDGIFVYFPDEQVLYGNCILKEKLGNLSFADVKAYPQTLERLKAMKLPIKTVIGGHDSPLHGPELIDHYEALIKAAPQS
T1 sequence (C7C422 29-270, looked up, species assumed): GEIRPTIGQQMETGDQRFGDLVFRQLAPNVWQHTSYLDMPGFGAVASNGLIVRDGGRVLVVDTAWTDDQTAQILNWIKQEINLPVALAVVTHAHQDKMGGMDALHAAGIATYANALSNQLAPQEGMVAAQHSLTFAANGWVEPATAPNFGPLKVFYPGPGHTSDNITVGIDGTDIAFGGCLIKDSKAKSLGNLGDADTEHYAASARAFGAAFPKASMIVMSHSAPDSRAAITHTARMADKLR
T2 sequence (P04190 31-257): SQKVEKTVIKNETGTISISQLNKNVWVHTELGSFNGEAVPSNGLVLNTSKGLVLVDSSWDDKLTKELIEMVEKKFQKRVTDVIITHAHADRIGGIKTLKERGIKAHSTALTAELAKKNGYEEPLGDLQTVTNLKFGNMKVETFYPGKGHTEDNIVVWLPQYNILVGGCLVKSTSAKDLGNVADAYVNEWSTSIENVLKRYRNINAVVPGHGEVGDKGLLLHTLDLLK
T5 sequence (P14489 20-266, species assumed): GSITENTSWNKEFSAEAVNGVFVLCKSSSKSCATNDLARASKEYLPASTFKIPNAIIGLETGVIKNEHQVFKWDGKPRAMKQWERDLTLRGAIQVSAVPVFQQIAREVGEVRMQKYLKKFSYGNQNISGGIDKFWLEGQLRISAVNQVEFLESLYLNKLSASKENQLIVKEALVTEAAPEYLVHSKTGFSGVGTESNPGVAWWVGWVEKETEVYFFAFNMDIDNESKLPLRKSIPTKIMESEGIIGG
T8 sequence (P62593 24-286 limits assumed): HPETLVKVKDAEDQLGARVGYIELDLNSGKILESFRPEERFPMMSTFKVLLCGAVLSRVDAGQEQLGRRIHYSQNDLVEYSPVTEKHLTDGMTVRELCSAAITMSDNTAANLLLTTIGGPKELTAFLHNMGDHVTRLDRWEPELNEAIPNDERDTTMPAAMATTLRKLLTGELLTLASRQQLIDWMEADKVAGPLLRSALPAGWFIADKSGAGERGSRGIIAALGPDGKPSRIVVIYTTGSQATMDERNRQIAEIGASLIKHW
T6 sequence (Q9EXV5 29-291, species assumed): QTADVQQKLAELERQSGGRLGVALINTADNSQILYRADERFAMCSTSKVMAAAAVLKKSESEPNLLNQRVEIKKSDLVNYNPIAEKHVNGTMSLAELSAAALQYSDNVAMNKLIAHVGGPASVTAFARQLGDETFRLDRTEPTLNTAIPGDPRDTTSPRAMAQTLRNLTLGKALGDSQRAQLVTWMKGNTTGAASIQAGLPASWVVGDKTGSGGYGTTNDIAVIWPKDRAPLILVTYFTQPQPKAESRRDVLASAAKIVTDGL
T7 sequence (P00811 20-377): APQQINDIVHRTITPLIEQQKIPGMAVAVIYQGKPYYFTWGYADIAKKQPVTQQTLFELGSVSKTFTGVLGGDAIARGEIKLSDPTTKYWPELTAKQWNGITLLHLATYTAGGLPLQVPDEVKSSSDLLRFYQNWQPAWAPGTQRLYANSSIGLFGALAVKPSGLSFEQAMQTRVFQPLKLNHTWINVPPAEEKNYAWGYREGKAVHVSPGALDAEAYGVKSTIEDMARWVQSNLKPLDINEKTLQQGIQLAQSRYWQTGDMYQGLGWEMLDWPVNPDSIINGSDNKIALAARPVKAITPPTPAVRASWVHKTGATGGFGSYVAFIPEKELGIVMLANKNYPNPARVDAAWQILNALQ

`Cc1cccc(C)c1/C=C(\S)C(=O)O` [Compound 6q] showed an IC50 [1, 12] of 4900 nM, an IC50 ([2]; lower end of the range, read-out: IC50 values from (lowest across the MBL panel)) of 20 nM and an IC50 ([2]; upper end of the range, read-out: IC50 values to (highest across the MBL panel)) of 4900 nM. It also gave an IC50 [3, 13] of 200 nM, an IC50 [4, 14] of 20 nM and an IC50 [5, 15] of 70 nM. The IC50 [6, 16] was 20 nM.
Work on `O=C(O)/C(S)=C/c1c2ccccc2cc2ccccc12` [Compound 6r] yielded an IC50 [1, 12] of 1700 ± 600 nM, an IC50 [3, 13] greater than 50000 nM and a remaining activity at 200 µM [7] of roughly 47%. The remaining activity at 200 µM [8] was roughly 65%, the IC50 [5, 15] was 50 ± 1 nM and the remaining activity at 200 µM [9] was roughly 41%. The remaining activity at 200 µM [10] was roughly 1%.
With `O=C(O)/C(S)=C/c1ccccc1Cc1ccc2ccccc2c1` [Compound 6s] the IC50 [1, 12] was 1100 ± 1700 nM, the IC50 [3, 13] was 200 ± 30 nM and the IC50 [4, 14] was 60 ± 3 nM. For the same compound, the IC50 [5, 15] was 100 ± 3 nM and the IC50 [6, 16] was 80 ± 2 nM.
In the case of `O=C(O)C(S)c1ccccc1` (stereo not shown) [Compound 13a], the IC50 [1] is reported as 12900 ± 1000 nM, the IC50 ([3]; read-out: IC50 versus BcII) is reported as 100 nM and the IC50 [11, 17] is reported as 71000 ± 1000 nM. For the same compound, the IC50 [4, 18] was 50 ± 1 nM, the IC50 [5] was 40 ± 1 nM and the IC50 [6] was 70 ± 3 nM.
Compound `O=C(O)C(S)Cc1ccccc1` (stereo not shown) [Compound 13b] has an IC50 ([1]; Table 2, read-out: IC50 versus NDM-1) of 38700 ± 4700 nM, an IC50 [3, 19] of 1400 ± 300 nM and an IC50 [11, 17] of 130000 ± 10000 nM. For the same compound, the IC50 [4, 18] was 70 ± 1 nM, the IC50 ([5]; Table 2, read-out: IC50 versus VIM-2) was 70 ± 2 nM and the IC50 ([6]; Table 2, read-out: IC50 versus IMP-1) was 50 ± 2 nM.
With `CC1=N/C(=C\c2ccc(F)cc2)C(=O)O1` [Compound 16] the remaining activity at 100 µM ([1]; at 100 µM) was 97 ± 2%, the “MBL inhibition, result in words” value [2] was “near inactive” and the remaining activity at 100 µM ([3]; at 100 µM) was 92 ± 2%. For the same compound, the remaining activity at 100 µM ([4]; at 100 µM) was 87 ± 1%, the remaining activity at 100 µM ([5]; at 100 µM) was 100% and the remaining activity at 100 µM ([6]; at 100 µM) was 100%.
`O=C(O)/C(O)=C/c1ccc(F)cc1` [Compound 17] was tested, and the remaining activity at 100 µM ([1]; at 100 µM) was 97 ± 4%, the “MBL inhibition, result in words” value [2] was “near inactive” and the remaining activity at 100 µM ([3]; at 100 µM) was 90 ± 3%. The remaining activity at 100 µM ([4]; at 100 µM) was 93 ± 2%, the remaining activity at 100 µM ([5]; at 100 µM) was 100% and the remaining activity at 100 µM ([6]; at 100 µM) was 100%.
In the case of `O=P(O)(O)C(O)c1ccc(Br)cc1F` (stereo not shown) [Compound 22], the remaining activity at 100 µM [1] is reported as 100%, the “MBL inhibition, result in words” value [2] is reported as “inactive” and the remaining activity at 100 µM [3] is reported as 98 ± 2%. The remaining activity at 100 µM [4] was 92 ± 5%, the remaining activity at 100 µM [5] was 100% and the remaining activity at 100 µM [6] was 100%.
With `O=P(O)(O)C(S)c1ccc(Br)cc1F` (stereo not shown) [Compound 26] the remaining activity at 100 µM [1] was 96 ± 3%, the “MBL inhibition, result in words” value [2] was “inactive” and the remaining activity at 100 µM [3] was 100%. It also gave a remaining activity at 100 µM [4] of 95 ± 6%, a remaining activity at 100 µM [5] of 100% and a remaining activity at 100 µM [6] of 100%.
For `CN1CCN(NC(=O)CN2C(=O)/C(=C/c3c(Cl)ccc(Cl)c3Cl)SC2=S)CC1` [ML302, reference compound], the IC50 [1, 12] was 15600 nM, the “fold less active than ML302F, NDM-1” value ([1]; ratio of IC50 values) was roughly 15 fold and the IC50 [3, 13] was 300 nM. The “fold less active than ML302F, BcII” value ([3]; ratio of IC50 values) was roughly 4 fold, the IC50 ([11]; read-out: IC50 CphA) was greater than 50000 nM and the IC50 [4, 14] was 100 nM. The “fold less active than ML302F, SPM-1” value ([4]; ratio of IC50 values) was roughly 5 fold, the IC50 [5, 15] was 60 nM and the IC50 [6, 16] was 90 nM.
`O=C(O)CN1C(=O)/C(=C/c2c(Cl)ccc(Cl)c2Cl)SC1=S` [ML302A] gave an IC50 [1, 12] greater than 50000 nM, an IC50 [3, 13] of 21300 ± 500 nM and an IC50 [4, 14] of 4800 ± 300 nM. It also gave an IC50 [5, 15] of 3600 ± 700 nM and an IC50 [6, 16] of 9600 ± 400 nM.
With `O=C(O)/C(S)=C/c1c(Cl)ccc(Cl)c1Cl` [ML302F, reference compound] the IC50 [1, 12] was 2400 nM, the IC50 [3, 13] was 80 nM and the IC50 ([11]; read-out: IC50 CphA) was 200 ± 4 nM. For the same compound, the IC50 [4, 14] was 20 nM, the IC50 [5, 15] was 40 nM and the IC50 [6, 16] was 20 nM.
With `O=C(O)C(O)c1ccccc1` (stereo not shown) [Mandelic acid, reference compound] the IC50 [1] was greater than 100000 nM, the “MBL inhibition, result in words” value [2] was “inactive” and the IC50 [3, 19] was greater than 100000 nM. The IC50 [11] was greater than 100000 nM, the IC50 [4, 18] was greater than 100000 nM and the IC50 [5] was greater than 100000 nM. The IC50 [6] was greater than 100000 nM.
